Data published in US20020026053A1, “Novel 3-(substituted) -2- indolinones compounds and use thereof as inhibitors of protein kinase activity” (priority 1997, published 2002).

Molecular target: T1, EGFR (Homo sapiens, UniProt P00533)
T1 construct: endogenous in cells; host or cells: A431 cells (lysate, captured with SUMO1 anti-EGFR antibody)
Test: Biochemical EGFR Assay
Set-up: concentration or dose not given beside the values
Conditions: protocol P.167
In short: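 EGFR from A431 lysate was captured on anti-EGFR-coated wells and preincubated 30 min with compound (diluted 1:10 in TBS) at room temperature. After ATP/MnCl2 phosphorylation for 5 min, the reaction was stopped with EDTA. Phosphotyrosine was detected by ELISA (anti-phosphotyrosine, peroxidase conjugate, ABTS) at 410 nm.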

T1 sequence (P00533 25-1210): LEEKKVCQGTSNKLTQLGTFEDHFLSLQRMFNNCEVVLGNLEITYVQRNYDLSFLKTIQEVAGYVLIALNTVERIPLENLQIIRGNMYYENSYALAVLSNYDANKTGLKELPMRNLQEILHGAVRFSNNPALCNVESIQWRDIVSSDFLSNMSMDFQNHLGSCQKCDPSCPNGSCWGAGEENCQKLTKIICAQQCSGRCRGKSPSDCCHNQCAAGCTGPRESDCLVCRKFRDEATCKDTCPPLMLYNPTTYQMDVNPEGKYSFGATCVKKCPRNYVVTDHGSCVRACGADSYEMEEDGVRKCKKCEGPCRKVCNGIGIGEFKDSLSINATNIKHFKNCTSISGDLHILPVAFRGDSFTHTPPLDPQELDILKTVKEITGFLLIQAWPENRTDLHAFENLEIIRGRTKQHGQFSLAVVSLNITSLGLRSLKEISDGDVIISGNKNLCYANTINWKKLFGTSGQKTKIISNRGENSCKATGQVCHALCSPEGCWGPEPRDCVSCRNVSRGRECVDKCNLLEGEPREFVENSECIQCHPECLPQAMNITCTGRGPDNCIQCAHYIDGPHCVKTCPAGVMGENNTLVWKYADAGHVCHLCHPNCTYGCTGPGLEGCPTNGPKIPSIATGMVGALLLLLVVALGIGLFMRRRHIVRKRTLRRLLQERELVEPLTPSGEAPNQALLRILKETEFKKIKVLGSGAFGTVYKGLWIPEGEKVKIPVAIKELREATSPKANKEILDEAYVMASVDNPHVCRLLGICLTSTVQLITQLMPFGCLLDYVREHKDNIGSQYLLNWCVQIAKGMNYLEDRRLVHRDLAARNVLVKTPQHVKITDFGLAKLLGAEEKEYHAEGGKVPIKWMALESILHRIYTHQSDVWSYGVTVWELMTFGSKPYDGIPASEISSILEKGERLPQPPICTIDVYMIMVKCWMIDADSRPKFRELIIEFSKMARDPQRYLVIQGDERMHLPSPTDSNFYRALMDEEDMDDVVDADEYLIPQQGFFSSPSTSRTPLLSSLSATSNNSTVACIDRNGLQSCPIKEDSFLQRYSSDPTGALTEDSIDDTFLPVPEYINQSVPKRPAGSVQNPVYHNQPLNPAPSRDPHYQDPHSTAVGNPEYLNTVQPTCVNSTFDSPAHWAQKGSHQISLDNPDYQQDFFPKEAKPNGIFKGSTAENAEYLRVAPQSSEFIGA

Question: With `Cc1c(Br)cc(Br)c2c1C(=Cc1cccc(Cl)c1)C(=O)N2` [10736/H06] as the molecule, how does the “Biochem EGFR % Inhibition (P.167)” value read?
Answer: The value was 12.6%.
